Patent publication US20130197080A1, “USE OF TERIFLUNOMIDE FOR TREATING MULTIPLE SCLEROSIS” (SANOFI, priority 2010, published 2013)

Tested on: patients with RMS
Assay: TEMSO Phase III trial: MRI outcomes
Assay type: in vivo, humans
Settings: 108 weeks; for Brain parenchymal fraction, LS mean change from baseline / Brain parenchymal fraction, LS mean difference vs placebo / Brain parenchymal fraction, Relative reduction vs placebo: MMRM; for Number of Gd-enhancing T1 lesions per scan, Estimate / Number of unique active lesions per scan, Estimate: Poisson regression
Procedure: A treatment neurologist at each site was responsible for evaluating patient eligibility, supervision of study medication administration, recording and treating adverse events and assessing relapses, and monitoring safety assessments. An independent examining neurologist, blinded to treatment assignment, performed all EDSS scores and functional system assessments. EDSS scores were determined at screening, baseline, every 12 weeks following baseline visit, and at unscheduled relapse visits. MRI scans were performed at baseline and Weeks 24, 48, 72 and 108, and conducted according to the study protocol; image data were collected at clinical site MRI facilities.
The key secondary endpoint was to determine the effect of teriflunomide on delaying disability progression at Week 108 as assessed by changes in EDSS. Sustained disability progression was defined as a persisting increase from baseline of at least 1.0 point on the EDSS (or at least 0.5 for patients with a baseline EDSS score greater than 5.5) for at least 12 weeks. The key prespecified MRI endpoint was the effect of teriflunomide on burden of disease (total lesion volume). Other MRI endpoints included number of gadolinium (Gd)-enhancing T1 lesions, volume of T1 hypointense lesion components (‘black holes’), number of unique active lesions and brain atrophy. Patient-reported fatigue, assessed by the Fatigue Impact Scale (FIS), was an additional secondary endpoint.
Change from baseline in burden of disease and T1 hypointense lesion volume were analysed with a mixed-effect model with repeated measures (MMRM) using cubic root transformed data. Atrophy was analysed as change from baseline brain volume with the MMRM. The number of Gd-enhancing T1 lesions and number of unique active lesions per scan were analysed using a Poisson regression model with robust error variance. The percentage of patients free from lesions was analysed using a logistic regression model. MRI scans obtained within 14 days of systemic corticosteroid therapy were excluded from all analyses.
The MMRM model (mixed-effect model with repeated measures) included treatment, EDSS strata, region, visit, treatment-by-visit interaction, baseline value and baseline-by-visit interaction as covariates. The percentage of patients free from lesions was analysed by a logistic regression model that included treatment, number of lesions at baseline, EDSS strata and region as covariates. The Poisson regression model included treatment, number of lesions at baseline, EDSS strata and region as covariates, and log-transformed number of scans as an offset variable. The change from baseline in fatigue impact scale (FIS) total score was analyzed using MMRM.

[1] = 7 mg once daily oral vs placebo
[2] = 7 mg once daily oral, ITT population
[3] = 7 mg once daily oral, MMRM using cubic root transformed volume data
[4] = 14 mg once daily oral vs placebo
[5] = 14 mg once daily oral, ITT population
[6] = 14 mg once daily oral, MMRM using cubic root transformed volume data

SMILES: C/C(O)=C(\C#N)C(=O)Nc1ccc(C(F)(F)F)cc1 [teriflunomide, (Z)-2-cyano-3-hydroxy-but-2-enoic acid-(4′-trifluoromethylphenyl)-amide]
- brain atrophy from baseline vs placebo (7 mg and 14 mg groups): No significant differences
- Number of Gd-enhancing T1 lesions per scan, Relative risk [1]: 0.428
- Number of unique active lesions per scan, Relative risk [1]: 0.523
- Number of Gd-enhancing T1 lesions per scan, Relative reduction vs placebo (7 mg once daily oral): 57.2%
- Number of unique active lesions per scan, Relative reduction vs placebo (7 mg once daily oral): 47.7%
- Burden of disease, Mean change from baseline [2]: 1.308 mL
- Proportion of patients free from Gd-enhancing T1 lesions, % [2]: (51.4) %
- T1 hypointense lesion volume, Mean change from baseline [2]: 0.499 mL
- Brain parenchymal fraction, LS mean change from baseline (7 mg once daily oral): −0.003
- Brain parenchymal fraction, LS mean difference vs placebo (7 mg once daily oral): 0.001
- Brain parenchymal fraction, Relative reduction vs placebo (7 mg once daily oral): 25.0%
- Burden of disease, LS mean change from baseline [3]: 0.080 mL
- Burden of disease, LS mean difference vs placebo [3]: -0.053 mL
- Burden of disease, Relative reduction vs placebo [3]: 39.4%
- T1 hypointense lesion volume, LS mean change from baseline [3]: 0.079 mL
- T1 hypointense lesion volume, LS mean difference vs placebo [3]: -0.016 mL
- T1 hypointense lesion volume, Relative reduction vs placebo [3]: 16.7%
- Number of Gd-enhancing T1 lesions per scan, Estimate [2]: 0.570
- Number of unique active lesions per scan, Estimate [2]: 1.288
- Number of Gd-enhancing T1 lesions per scan, Relative risk [4]: 0.196
- Number of unique active lesions per scan, Relative risk [4]: 0.306
- Burden of disease, Mean change from baseline [5]: 0.723 mL
- T1 hypointense lesion volume, Mean change from baseline [5]: 0.331 mL
- Brain parenchymal fraction, LS mean change from baseline (14 mg once daily oral): −0.003
- Brain parenchymal fraction, LS mean difference vs placebo (14 mg once daily oral): 0.001
- Brain parenchymal fraction, Relative reduction vs placebo (14 mg once daily oral): 25.0%
- Burden of disease, LS mean change from baseline [6]: 0.043 mL
- Burden of disease, LS mean difference vs placebo [6]: -0.089 mL
- T1 hypointense lesion volume, LS mean change from baseline [6]: 0.066 mL
- T1 hypointense lesion volume, LS mean difference vs placebo [6]: -0.030 mL
- Number of Gd-enhancing T1 lesions per scan, Estimate [5]: 0.261
- Number of unique active lesions per scan, Estimate [5]: 0.754
